{
  "source": "patent EP1263429B1",
  "about": "“ANTIVIRAL THERAPY” (Universiteit Utrecht, priority 2000, dated 2001)",
  "key": {"HIV-1": {"tested_on": "HIV-1", "assay": "IC50 determination of an anti-viral (Table 3)", "format": "cell-based", "conditions": "Human immunodeficiency virus 1"}, "HXB2": {"tested_on": "HXB2", "assay": "IC50 of APHS for HIV-1 strains (Table 2), sensitive strain", "format": "cell-based", "conditions": "Human immunodeficiency virus 1, HXB2, read-out: IC50 of APHS"}, "[1]": {"tested_on": "Monocyte-derived macrophages (MDM)", "format": "cell-based, human", "experimental": "Cell viability is assessed by the MTT assay. In short, cells are incubated with MTT 3-(4,5-dimethylthiazol-2-yl)-2,5-diphenyltetrazollumbromide (Sigma) for 2 hours at 37 °C. During this time viable cells convert MTT into […] formazan dyes. Afterwards crystals are solubilised with a solution containing isopropanol. The OD of the supernatant is measured at 550 nm.\nMonocyte-derived macrophages (MDM) were obtained like described above. MDM were then washed twice and cultured for 4 to 7 days in different concentrations of APHS. After a 4 days incubation period cellular viability was assessed by MTT cytotoxicity assay where viable cells convert MTT into a colored formazan dye that can be measured spectrophotometrically.\n• Fig. 1 - Plasmids that are used for studies on the effect of compounds on HIV promotor activity. • Fig. 2 - Peripheral blood mononuclear cells (PBMC) were isolated from heparinized blood from HIV-1-, HIV-2-, and hepatitis B-seronegative donors and obtained on Ficoll-Hypaque density gradients. PBMC were washed twice and monocytes were purified by countercurrent centrifugal elutriation. […] After 4 and 5 days of incubation samples of culture supernatant were collected and p24-core antigen production was quantified using the enzyme-linked immunosorbent assay (ELISA) system of John Moore. […]"}},
  "data": [
    {"smiles": "CCCCC#CCSc1ccccc1OC(C)=O", "note": "[APHS, o-(acetoxy-phenyl)hept-2-ynyl sulphide]", "values": [
      {"measurement": "IC50", "setting": "HIV-1", "value": 10, "unit": "µM"},
      {"measurement": "IC50", "setting": "HXB2", "value": "12.6 ± 2.3", "unit": "µM"},
      {"measurement": "cytotoxicity (cellular viability, MTT)", "setting": "[1]", "value": "None of the tested concentrations of APHS was found to be cytotoxic"}
    ]}
  ]
}
